# From the supplement of paper PMC8671470
# Structures can show the parent of a compound that is named as a salt.
# Test system: Mono-Mac-6
# Test: cell viability (% survival relative to DMSO control); higher = less cytotoxic
# Conditions: drug1 concentration 1000 nM; drug2 concentration 500 nM; 72 h
# Description: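 8x8 drug-combination matrices (0–5000 nM; rosiglitazone and lestaurtinib 0–1000 nM) were run in Mono-Mac-6 cells for 72 h with CellTiter-Glo read-out. Survival is normalised to DMSO and 10 µM bortezomib and clipped at 100%.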
row,SMILES,cell viability [%]
1,CCn1c(=Cc2cccc[n+]2CC)sc(=C2Sc3ccccc3N2C)c1=O [MKT 077] + CN(C)CCNC(=O)c1cccn2c(=O)c3cc4ccccc4cc3nc12 [Bmh-21],62.8
2,CN(CCOc1ccc(Cc2sc(O)nc2O)cc1)c1ccccn1 [Rosiglitazone] + CC(C)(Cc1ccccc1)NCC(O)c1ccc(O)c(NS(C)(=O)=O)c1 [Zinterol hydrochloride],27.1
3,CN(CCOc1ccc(Cc2sc(O)nc2O)cc1)c1ccccn1 [Rosiglitazone] + c1cc(-c2cnn3cc(-c4ccc(OCCN5CCCCC5)cc4)cnc23)ccn1 [Dorsomorphin],6.36

# Same assay, conditions: drug1 concentration 1000 nM; drug2 concentration 1000 nM; 72 h
row,SMILES,cell viability [%]
1,O=C(O)CC[N+](=O)[O-] [3-nitropropionic acid] + CCn1c(=Cc2cccc[n+]2CC)sc(=C2Sc3ccccc3N2C)c1=O [MKT 077],87
2,CCn1c(=Cc2cccc[n+]2CC)sc(=C2Sc3ccccc3N2C)c1=O [MKT 077] + CN(C)CCNC(=O)c1cccn2c(=O)c3cc4ccccc4cc3nc12 [Bmh-21],74.1
3,CN(CCOc1ccc(Cc2sc(O)nc2O)cc1)c1ccccn1 [Rosiglitazone] + CC(C)(Cc1ccccc1)NCC(O)c1ccc(O)c(NS(C)(=O)=O)c1 [Zinterol hydrochloride],32.7
4,CN(CCOc1ccc(Cc2sc(O)nc2O)cc1)c1ccccn1 [Rosiglitazone] + c1cc(-c2cnn3cc(-c4ccc(OCCN5CCCCC5)cc4)cnc23)ccn1 [Dorsomorphin],9.67

# Same assay, conditions: drug1 concentration 1000 nM; drug2 concentration 5000 nM; 72 h
row,SMILES,cell viability [%]
1,O=C(O)CC[N+](=O)[O-] [3-nitropropionic acid] + CCn1c(=Cc2cccc[n+]2CC)sc(=C2Sc3ccccc3N2C)c1=O [MKT 077],> 100
2,CCn1c(=Cc2cccc[n+]2CC)sc(=C2Sc3ccccc3N2C)c1=O [MKT 077] + CN(C)CCNC(=O)c1cccn2c(=O)c3cc4ccccc4cc3nc12 [Bmh-21],58.6
3,CN(CCOc1ccc(Cc2sc(O)nc2O)cc1)c1ccccn1 [Rosiglitazone] + CC(C)(Cc1ccccc1)NCC(O)c1ccc(O)c(NS(C)(=O)=O)c1 [Zinterol hydrochloride],0
4,CN(CCOc1ccc(Cc2sc(O)nc2O)cc1)c1ccccn1 [Rosiglitazone] + c1cc(-c2cnn3cc(-c4ccc(OCCN5CCCCC5)cc4)cnc23)ccn1 [Dorsomorphin],12.4

# Same assay, conditions: drug1 concentration 5000 nM; drug2 concentration 5 nM; 72 h
row,SMILES,cell viability [%]
1,O=C(O)CC[N+](=O)[O-] [3-nitropropionic acid] + CCn1c(=Cc2cccc[n+]2CC)sc(=C2Sc3ccccc3N2C)c1=O [MKT 077],90.3
2,CCn1c(=Cc2cccc[n+]2CC)sc(=C2Sc3ccccc3N2C)c1=O [MKT 077] + CN(C)CCNC(=O)c1cccn2c(=O)c3cc4ccccc4cc3nc12 [Bmh-21],> 100

# Same assay, conditions: drug1 concentration 5000 nM; drug2 concentration 10 nM; 72 h
row,SMILES,cell viability [%]
1,O=C(O)CC[N+](=O)[O-] [3-nitropropionic acid] + CCn1c(=Cc2cccc[n+]2CC)sc(=C2Sc3ccccc3N2C)c1=O [MKT 077],> 100
2,CCn1c(=Cc2cccc[n+]2CC)sc(=C2Sc3ccccc3N2C)c1=O [MKT 077] + CN(C)CCNC(=O)c1cccn2c(=O)c3cc4ccccc4cc3nc12 [Bmh-21],> 100

# Same assay, conditions: drug1 concentration 5000 nM; drug2 concentration 50 nM; 72 h
row,SMILES,cell viability [%]
1,O=C(O)CC[N+](=O)[O-] [3-nitropropionic acid] + CCn1c(=Cc2cccc[n+]2CC)sc(=C2Sc3ccccc3N2C)c1=O [MKT 077],> 100
2,CCn1c(=Cc2cccc[n+]2CC)sc(=C2Sc3ccccc3N2C)c1=O [MKT 077] + CN(C)CCNC(=O)c1cccn2c(=O)c3cc4ccccc4cc3nc12 [Bmh-21],99

# Same assay, conditions: drug1 concentration 5000 nM; drug2 concentration 100 nM; 72 h
row,SMILES,cell viability [%]
1,O=C(O)CC[N+](=O)[O-] [3-nitropropionic acid] + CCn1c(=Cc2cccc[n+]2CC)sc(=C2Sc3ccccc3N2C)c1=O [MKT 077],76.8
2,CCn1c(=Cc2cccc[n+]2CC)sc(=C2Sc3ccccc3N2C)c1=O [MKT 077] + CN(C)CCNC(=O)c1cccn2c(=O)c3cc4ccccc4cc3nc12 [Bmh-21],> 100

# Same assay, conditions: drug1 concentration 5000 nM; drug2 concentration 500 nM; 72 h
row,SMILES,cell viability [%]
1,O=C(O)CC[N+](=O)[O-] [3-nitropropionic acid] + CCn1c(=Cc2cccc[n+]2CC)sc(=C2Sc3ccccc3N2C)c1=O [MKT 077],> 100
2,CCn1c(=Cc2cccc[n+]2CC)sc(=C2Sc3ccccc3N2C)c1=O [MKT 077] + CN(C)CCNC(=O)c1cccn2c(=O)c3cc4ccccc4cc3nc12 [Bmh-21],73.5

# Same assay, conditions: drug1 concentration 5000 nM; drug2 concentration 1000 nM; 72 h
row,SMILES,cell viability [%]
1,O=C(O)CC[N+](=O)[O-] [3-nitropropionic acid] + CCn1c(=Cc2cccc[n+]2CC)sc(=C2Sc3ccccc3N2C)c1=O [MKT 077],82.4
2,CCn1c(=Cc2cccc[n+]2CC)sc(=C2Sc3ccccc3N2C)c1=O [MKT 077] + CN(C)CCNC(=O)c1cccn2c(=O)c3cc4ccccc4cc3nc12 [Bmh-21],56.9

# Same assay, conditions: drug1 concentration 5000 nM; drug2 concentration 5000 nM; 72 h
row,SMILES,cell viability [%]
1,O=C(O)CC[N+](=O)[O-] [3-nitropropionic acid] + CCn1c(=Cc2cccc[n+]2CC)sc(=C2Sc3ccccc3N2C)c1=O [MKT 077],> 100
2,CCn1c(=Cc2cccc[n+]2CC)sc(=C2Sc3ccccc3N2C)c1=O [MKT 077] + CN(C)CCNC(=O)c1cccn2c(=O)c3cc4ccccc4cc3nc12 [Bmh-21],24.6

# Test system: HL-60
# Test: as above
# Conditions: drug1 concentration 1 nM; drug2 concentration 5 nM; 72 h
# Description: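 8x8 drug-combination matrices (0-5000 nM; rosiglitazone and lestaurtinib 0-1000 nM) were run in HL-60 cells for 72 h with a CellTiter-Glo read-out. Survival is normalised to DMSO and 10 µM bortezomib and clipped at 100%. Bliss synergy was analysed in SynergyFinder.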
row,SMILES,cell viability [%]
1,CN(CCOc1ccc(Cc2sc(O)nc2O)cc1)c1ccccn1 [Rosiglitazone] + CC(C)(Cc1ccccc1)NCC(O)c1ccc(O)c(NS(C)(=O)=O)c1 [Zinterol hydrochloride],87.9
2,CN(CCOc1ccc(Cc2sc(O)nc2O)cc1)c1ccccn1 [Rosiglitazone] + c1cc(-c2cnn3cc(-c4ccc(OCCN5CCCCC5)cc4)cnc23)ccn1 [Dorsomorphin],> 100

# Same assay, conditions: drug1 concentration 1 nM; drug2 concentration 10 nM; 72 h
row,SMILES,cell viability [%]
1,CN(CCOc1ccc(Cc2sc(O)nc2O)cc1)c1ccccn1 [Rosiglitazone] + CC(C)(Cc1ccccc1)NCC(O)c1ccc(O)c(NS(C)(=O)=O)c1 [Zinterol hydrochloride],63.4
2,CN(CCOc1ccc(Cc2sc(O)nc2O)cc1)c1ccccn1 [Rosiglitazone] + c1cc(-c2cnn3cc(-c4ccc(OCCN5CCCCC5)cc4)cnc23)ccn1 [Dorsomorphin],> 100

# Same assay, conditions: drug1 concentration 1 nM; drug2 concentration 50 nM; 72 h
row,SMILES,cell viability [%]
1,CN(CCOc1ccc(Cc2sc(O)nc2O)cc1)c1ccccn1 [Rosiglitazone] + CC(C)(Cc1ccccc1)NCC(O)c1ccc(O)c(NS(C)(=O)=O)c1 [Zinterol hydrochloride],83.3
2,CN(CCOc1ccc(Cc2sc(O)nc2O)cc1)c1ccccn1 [Rosiglitazone] + c1cc(-c2cnn3cc(-c4ccc(OCCN5CCCCC5)cc4)cnc23)ccn1 [Dorsomorphin],94.3

# Same assay, conditions: drug1 concentration 1 nM; drug2 concentration 100 nM; 72 h
row,SMILES,cell viability [%]
1,CN(CCOc1ccc(Cc2sc(O)nc2O)cc1)c1ccccn1 [Rosiglitazone] + CC(C)(Cc1ccccc1)NCC(O)c1ccc(O)c(NS(C)(=O)=O)c1 [Zinterol hydrochloride],> 100
2,CN(CCOc1ccc(Cc2sc(O)nc2O)cc1)c1ccccn1 [Rosiglitazone] + c1cc(-c2cnn3cc(-c4ccc(OCCN5CCCCC5)cc4)cnc23)ccn1 [Dorsomorphin],91.4

# Same assay, conditions: drug1 concentration 1 nM; drug2 concentration 500 nM; 72 h
row,SMILES,cell viability [%]
1,CN(CCOc1ccc(Cc2sc(O)nc2O)cc1)c1ccccn1 [Rosiglitazone] + CC(C)(Cc1ccccc1)NCC(O)c1ccc(O)c(NS(C)(=O)=O)c1 [Zinterol hydrochloride],90.1
2,CN(CCOc1ccc(Cc2sc(O)nc2O)cc1)c1ccccn1 [Rosiglitazone] + c1cc(-c2cnn3cc(-c4ccc(OCCN5CCCCC5)cc4)cnc23)ccn1 [Dorsomorphin],90.8

# Same assay, conditions: drug1 concentration 1 nM; drug2 concentration 1000 nM; 72 h
row,SMILES,cell viability [%]
1,CN(CCOc1ccc(Cc2sc(O)nc2O)cc1)c1ccccn1 [Rosiglitazone] + CC(C)(Cc1ccccc1)NCC(O)c1ccc(O)c(NS(C)(=O)=O)c1 [Zinterol hydrochloride],40.6
2,CN(CCOc1ccc(Cc2sc(O)nc2O)cc1)c1ccccn1 [Rosiglitazone] + c1cc(-c2cnn3cc(-c4ccc(OCCN5CCCCC5)cc4)cnc23)ccn1 [Dorsomorphin],88
